# Assay results as given in ChEMBL document CHEMBL1201862, “PubChem BioAssay data set” (2004).
#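 Assay format: 96-well plates, 48-hour exposure. Abbreviation: GI50, concentration required for 50% inhibition of growth.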 The source made the active and inactive calls. Rule as the data show it: active = GI50 up to about 1.1 µM and inactive = higher.
# What was measured:
# Assay in all cases: NCI anticancer screen, dose series, 48 h
# 786-0 = tested on: 786-0
# A498 = tested on: A498
# A549 = tested on: A549
# ACHN = tested on: ACHN
# CAKI-1 = tested on: CAKI-1
# CCRF-CEM = tested on: CCRF-CEM
# COLO 205 = tested on: COLO 205
# DLD-1 = tested on: DLD-1
# DMS-114 = tested on: DMS-114
# DMS-273 = tested on: DMS-273
# EKVX = tested on: EKVX
# HCC 2998 = tested on: HCC 2998
# HCT-116 = tested on: HCT-116
# HCT-15 = tested on: HCT-15
# HL-60 = tested on: HL-60
# HOP-18 = tested on: HOP-18
# HOP-62 = tested on: HOP-62
# HOP-92 = tested on: HOP-92
# HT-29 = tested on: HT-29
# IGROV-1 = tested on: IGROV-1
# K562 = tested on: K562
# KM-20L2 = tested on: KM-20L2
# KM12 = tested on: KM12
# LOX IMVI = tested on: LOX IMVI
# LXFL 529 = tested on: LXFL 529
# M14 = tested on: M14
# M19-MEL = tested on: M19-MEL
# MOLT-4 = tested on: MOLT-4
# Malme-3M = tested on: Malme-3M
# NCI-H226 = tested on: NCI-H226
# NCI-H23 = tested on: NCI-H23
# NCI-H460 = tested on: NCI-H460
# NCI-H522 = tested on: NCI-H522
# OVCAR-3 = tested on: OVCAR-3
# OVCAR-4 = tested on: OVCAR-4
# OVCAR-5 = tested on: OVCAR-5
# OVCAR-8 = tested on: OVCAR-8
# RPMI-8226 = tested on: RPMI-8226
# RXF 393 = tested on: RXF 393
# RXF 631 = tested on: RXF 631
# SF-268 = tested on: SF-268
# SF-295 = tested on: SF-295
# SF-539 = tested on: SF-539
# SK-MEL-28 = tested on: SK-MEL-28
# SK-MEL-2 = tested on: SK-MEL-2
# SK-MEL-5 = tested on: SK-MEL-5
# SK-OV-3 = tested on: SK-OV-3
# SN12C = tested on: SN12C
# SNB-19 = tested on: SNB-19
# SNB-75 = tested on: SNB-75
# SNB-78 = tested on: SNB-78
# SR = tested on: SR
# SW-620 = tested on: SW-620
# TK-10 = tested on: TK-10
# U-251 = tested on: U-251
# UACC-257 = tested on: UACC-257
# UACC-62 = tested on: UACC-62
# UO-31 = tested on: UO-31
# XF498 = tested on: XF498
smiles,measurement,setting,value
CC1(C)COC(c2ccc(C(F)(F)F)cc2C(O)c2ccc3ccccc3c2)=N1 (configuration not stated),GI50,786-0,> 10 µM (inactive)
same,GI50,A498,> 10 µM (inactive)
same,GI50,A549,99.5 µM (inactive)
same,GI50,ACHN,> 10 µM (inactive)
same,GI50,CAKI-1,94.6 µM (inactive)
same,GI50,CCRF-CEM,> 10 µM (inactive)
same,GI50,COLO 205,> 10 µM (inactive)
same,GI50,DLD-1,> 10 µM (inactive)
same,GI50,DMS-114,> 10 µM (inactive)
same,GI50,DMS-273,> 10 µM (inactive)
same,GI50,EKVX,> 10 µM (inactive)
same,GI50,HCC 2998,> 10 µM (inactive)
same,GI50,HCT-116,> 10 µM (inactive)
same,GI50,HCT-15,> 10 µM
same,GI50,HL-60,78.3 µM (inactive)
same,GI50,HOP-18,> 10 µM (inactive)
same,GI50,HOP-62,> 10 µM (inactive)
same,GI50,HOP-92,41.4 µM (inactive)
same,GI50,HT-29,> 10 µM (inactive)
same,GI50,IGROV-1,> 10 µM (inactive)
same,GI50,K562,> 10 µM (inactive)
same,GI50,KM-20L2,> 10 µM (inactive)
same,GI50,KM12,> 10 µM (inactive)
same,GI50,LOX IMVI,> 10 µM (inactive)
same,GI50,LXFL 529,> 10 µM (inactive)
same,GI50,M14,> 10 µM (inactive)
same,GI50,M19-MEL,> 10 µM (inactive)
same,GI50,MOLT-4,> 10 µM (inactive)
same,GI50,Malme-3M,> 10 µM (inactive)
same,GI50,NCI-H226,51.3 µM (inactive)
same,GI50,NCI-H23,28.9 µM (inactive)
same,GI50,NCI-H460,> 10 µM (inactive)
same,GI50,NCI-H522,> 10 µM (inactive)
same,GI50,OVCAR-3,> 10 µM (inactive)
same,GI50,OVCAR-4,> 10 µM (inactive)
same,GI50,OVCAR-5,> 10 µM (inactive)
same,GI50,OVCAR-8,> 10 µM (inactive)
same,GI50,RPMI-8226,> 100 µM (inactive)
same,GI50,RXF 393,16 µM (inactive)
same,GI50,RXF 631,> 100 µM (inactive)
same,GI50,SF-268,82 µM (inactive)
same,GI50,SF-295,20.7 µM (inactive)
same,GI50,SF-539,64.4 µM (inactive)
same,GI50,SK-MEL-28,> 10 µM (inactive)
same,GI50,SK-MEL-2,> 10 µM (inactive)
same,GI50,SK-MEL-5,> 10 µM (inactive)
same,GI50,SK-OV-3,> 10 µM (inactive)
same,GI50,SN12C,> 10 µM (inactive)
same,GI50,SNB-19,57.8 µM (inactive)
same,GI50,SNB-75,15.8 µM (inactive)
same,GI50,SNB-78,89.3 µM (inactive)
same,GI50,SR,> 10 µM (inactive)
same,GI50,SW-620,> 10 µM (inactive)
same,GI50,TK-10,> 10 µM (inactive)
same,GI50,U-251,> 10 µM (inactive)
same,GI50,UACC-257,> 10 µM (inactive)
same,GI50,UACC-62,> 10 µM (inactive)
same,GI50,UO-31,> 10 µM (inactive)
same,GI50,XF498,64.3 µM (inactive)
OCC(O)COc1c(Cl)cc(Cl)cc1Cl (configuration not stated),GI50,786-0,> 47.6 µM (inactive)
same,GI50,A498,> 100 µM (inactive)
same,GI50,A549,> 100 µM (inactive)
same,GI50,ACHN,> 100 µM (inactive)
same,GI50,CAKI-1,> 100 µM (inactive)
same,GI50,CCRF-CEM,> 41.8 µM (inactive)
same,GI50,COLO 205,> 68.7 µM (inactive)
same,GI50,DLD-1,> 59.7 µM (inactive)
same,GI50,DMS-114,> 100 µM (inactive)
same,GI50,DMS-273,> 100 µM (inactive)
same,GI50,EKVX,> 100 µM (inactive)
same,GI50,HCC 2998,> 100 µM (inactive)
same,GI50,HCT-116,> 74.3 µM (inactive)
same,GI50,HCT-15,> 100 µM
same,GI50,HL-60,> 100 µM (inactive)
same,GI50,HOP-18,> 100 µM (inactive)
same,GI50,HOP-62,> 100 µM (inactive)
same,GI50,HOP-92,> 100 µM (inactive)
same,GI50,HT-29,> 100 µM (inactive)
same,GI50,IGROV-1,> 100 µM (inactive)
same,GI50,K562,> 46.6 µM (inactive)
same,GI50,KM-20L2,> 100 µM (inactive)
same,GI50,KM12,> 100 µM (inactive)
same,GI50,LOX IMVI,> 41.3 µM (inactive)
same,GI50,LXFL 529,> 90.8 µM (inactive)
same,GI50,M14,> 100 µM (inactive)
same,GI50,M19-MEL,> 100 µM (inactive)
same,GI50,MOLT-4,> 31.6 µM (inactive)
same,GI50,Malme-3M,> 100 µM (inactive)
same,GI50,NCI-H226,> 100 µM (inactive)
same,GI50,NCI-H23,> 57.4 µM (inactive)
same,GI50,NCI-H460,> 100 µM (inactive)
same,GI50,NCI-H522,> 100 µM (inactive)
same,GI50,OVCAR-3,> 100 µM (inactive)
same,GI50,OVCAR-4,> 100 µM (inactive)
same,GI50,OVCAR-5,> 100 µM (inactive)
same,GI50,OVCAR-8,> 100 µM (inactive)
same,GI50,RPMI-8226,> 44.9 µM (inactive)
same,GI50,RXF 393,> 100 µM (inactive)
same,GI50,RXF 631,> 100 µM (inactive)
same,GI50,SF-268,> 100 µM (inactive)
same,GI50,SF-295,> 100 µM (inactive)
same,GI50,SF-539,> 100 µM (inactive)
same,GI50,SK-MEL-28,> 100 µM (inactive)
same,GI50,SK-MEL-2,> 100 µM (inactive)
same,GI50,SK-MEL-5,> 100 µM (inactive)
same,GI50,SK-OV-3,> 100 µM (inactive)
same,GI50,SN12C,> 100 µM (inactive)
same,GI50,SNB-19,> 100 µM (inactive)
same,GI50,SNB-75,> 100 µM (inactive)
same,GI50,SNB-78,> 100 µM (inactive)
same,GI50,SR,61.7 µM (inactive)
same,GI50,SW-620,> 34 µM (inactive)
same,GI50,TK-10,> 100 µM (inactive)
same,GI50,U-251,> 100 µM (inactive)
same,GI50,UACC-257,> 100 µM (inactive)
same,GI50,UACC-62,> 100 µM (inactive)
same,GI50,UO-31,> 100 µM (inactive)
same,GI50,XF498,> 100 µM (inactive)
CC1=Nc2c(ccc3c2C(=O)c2ccccc2C3=O)NC(c2ccncc2)C1 (configuration not stated),GI50,786-0,> 10 µM (inactive)
same,GI50,A498,23.8 µM (inactive)
same,GI50,A549,13.3 µM (inactive)
same,GI50,ACHN,6.75 µM (inactive)
same,GI50,CAKI-1,7.98 µM (inactive)
same,GI50,CCRF-CEM,0.515 µM (active)
same,GI50,COLO 205,> 10 µM (inactive)
same,GI50,DLD-1,29.4 µM (inactive)
same,GI50,DMS-114,7.74 µM (inactive)
same,GI50,DMS-273,> 10 µM (inactive)
same,GI50,EKVX,> 10 µM (inactive)
same,GI50,HCC 2998,> 10 µM (inactive)
same,GI50,HCT-116,41.5 µM (inactive)
same,GI50,HCT-15,9.93 µM
same,GI50,HL-60,0.798 µM (active)
same,GI50,HOP-18,> 10 µM (inactive)
same,GI50,HOP-62,35.1 µM (inactive)
same,GI50,HOP-92,> 10 µM (inactive)
same,GI50,HT-29,> 10 µM (inactive)
same,GI50,IGROV-1,4.94 µM (inactive)
same,GI50,K562,> 100 µM (inactive)
same,GI50,KM-20L2,> 10 µM (inactive)
same,GI50,KM12,5.07 µM (inactive)
same,GI50,LOX IMVI,34.8 µM (inactive)
same,GI50,LXFL 529,> 10 µM (inactive)
same,GI50,M14,> 10 µM (inactive)
same,GI50,M19-MEL,> 10 µM (inactive)
same,GI50,MOLT-4,3.73 µM (inactive)
same,GI50,Malme-3M,> 10 µM (inactive)
same,GI50,NCI-H226,> 10 µM (inactive)
same,GI50,NCI-H23,> 10 µM (inactive)
same,GI50,NCI-H460,> 10 µM (inactive)
same,GI50,NCI-H522,6.82 µM (inactive)
same,GI50,OVCAR-3,> 10 µM (inactive)
same,GI50,OVCAR-4,> 10 µM (inactive)
same,GI50,OVCAR-5,95.1 µM (inactive)
same,GI50,OVCAR-8,8.55 µM (inactive)
same,GI50,RPMI-8226,4.84 µM (inactive)
same,GI50,RXF 393,> 10 µM (inactive)
same,GI50,RXF 631,36.6 µM (inactive)
same,GI50,SF-268,> 10 µM (inactive)
same,GI50,SF-295,> 10 µM (inactive)
same,GI50,SF-539,> 10 µM (inactive)
same,GI50,SK-MEL-28,> 10 µM (inactive)
same,GI50,SK-MEL-2,> 10 µM (inactive)
same,GI50,SK-MEL-5,> 100 µM (inactive)
same,GI50,SK-OV-3,6.49 µM (inactive)
same,GI50,SN12C,57.4 µM (inactive)
same,GI50,SNB-19,> 10 µM (inactive)
same,GI50,SNB-75,5.96 µM (inactive)
same,GI50,SNB-78,> 10 µM (inactive)
same,GI50,SR,0.135 µM (active)
same,GI50,SW-620,52.5 µM (inactive)
same,GI50,TK-10,> 100 µM (inactive)
same,GI50,U-251,> 10 µM (inactive)
same,GI50,UACC-257,> 10 µM (inactive)
same,GI50,UACC-62,62.4 µM (inactive)
same,GI50,UO-31,4.72 µM (inactive)
same,GI50,XF498,> 100 µM (inactive)
